Data from ChEMBL document CHEMBL3091289, “Design of fluorinated 5-HT(4)R antagonists: influence of the basicity and lipophilicity toward the 5-HT(4)R binding affinities” (Bioorg Med Chem, 2013).

Columns and labels:
[1] = target: 5-hydroxytryptamine receptor 7 (Homo sapiens, UniProt P34969); test: Binding affinity to human 5HT7
[2] = target: 5-hydroxytryptamine receptor 6 (Homo sapiens, UniProt P50406); test: Binding affinity to human 5HT6
[3] = target: 5-hydroxytryptamine receptor 5A (Homo sapiens, UniProt P47898); test: Binding affinity to human 5HT5A
Sequence of 5-hydroxytryptamine receptor 5A (P47898 whole entry): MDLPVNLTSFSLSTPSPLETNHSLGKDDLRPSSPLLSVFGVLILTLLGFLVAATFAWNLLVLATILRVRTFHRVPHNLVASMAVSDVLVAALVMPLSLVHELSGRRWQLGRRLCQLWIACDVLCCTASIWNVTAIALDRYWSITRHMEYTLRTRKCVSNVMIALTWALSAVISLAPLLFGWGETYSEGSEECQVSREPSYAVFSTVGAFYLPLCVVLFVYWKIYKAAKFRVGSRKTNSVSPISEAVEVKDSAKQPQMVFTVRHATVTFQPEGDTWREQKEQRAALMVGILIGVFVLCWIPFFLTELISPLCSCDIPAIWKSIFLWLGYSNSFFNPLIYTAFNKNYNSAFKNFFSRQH

[4] = target: T1, 5-hydroxytryptamine receptor 3A (Homo sapiens, UniProt P46098); test: Binding affinity to human 5HT3
T1 sequence (P46098 whole entry): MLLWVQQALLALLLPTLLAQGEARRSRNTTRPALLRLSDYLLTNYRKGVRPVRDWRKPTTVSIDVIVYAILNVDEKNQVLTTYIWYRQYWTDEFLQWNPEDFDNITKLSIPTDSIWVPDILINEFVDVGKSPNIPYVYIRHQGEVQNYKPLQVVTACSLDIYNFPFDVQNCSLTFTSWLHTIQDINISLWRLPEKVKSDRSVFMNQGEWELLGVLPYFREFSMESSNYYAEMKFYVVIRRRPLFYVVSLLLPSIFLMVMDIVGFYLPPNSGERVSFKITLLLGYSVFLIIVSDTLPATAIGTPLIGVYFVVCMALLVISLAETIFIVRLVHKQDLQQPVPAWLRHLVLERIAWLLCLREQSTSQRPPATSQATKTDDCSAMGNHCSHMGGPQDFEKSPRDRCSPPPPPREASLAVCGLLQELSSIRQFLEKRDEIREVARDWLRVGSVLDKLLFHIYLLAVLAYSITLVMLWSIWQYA

[5] = target: 5-hydroxytryptamine receptor 2B (Homo sapiens, UniProt P41595); test: Binding affinity to human 5HT2B
Sequence of 5-hydroxytryptamine receptor 2B (P41595 whole entry): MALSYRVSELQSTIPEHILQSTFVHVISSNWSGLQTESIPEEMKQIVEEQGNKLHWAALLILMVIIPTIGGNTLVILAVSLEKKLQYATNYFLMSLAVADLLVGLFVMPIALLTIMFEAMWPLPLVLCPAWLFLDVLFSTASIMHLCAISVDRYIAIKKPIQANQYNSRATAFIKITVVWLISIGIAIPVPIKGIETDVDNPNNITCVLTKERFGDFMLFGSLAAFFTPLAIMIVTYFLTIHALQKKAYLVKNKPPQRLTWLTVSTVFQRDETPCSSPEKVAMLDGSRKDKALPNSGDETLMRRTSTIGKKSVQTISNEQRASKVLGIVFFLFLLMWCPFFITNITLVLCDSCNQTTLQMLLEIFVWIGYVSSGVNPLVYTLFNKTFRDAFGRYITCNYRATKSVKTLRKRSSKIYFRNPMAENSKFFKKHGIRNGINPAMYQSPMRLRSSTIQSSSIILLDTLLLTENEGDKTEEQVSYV

[6] = target: T2, 5-hydroxytryptamine receptor 2C (Homo sapiens, UniProt P28335); test: Binding affinity to human 5HT2C
T2 sequence (P28335 whole entry): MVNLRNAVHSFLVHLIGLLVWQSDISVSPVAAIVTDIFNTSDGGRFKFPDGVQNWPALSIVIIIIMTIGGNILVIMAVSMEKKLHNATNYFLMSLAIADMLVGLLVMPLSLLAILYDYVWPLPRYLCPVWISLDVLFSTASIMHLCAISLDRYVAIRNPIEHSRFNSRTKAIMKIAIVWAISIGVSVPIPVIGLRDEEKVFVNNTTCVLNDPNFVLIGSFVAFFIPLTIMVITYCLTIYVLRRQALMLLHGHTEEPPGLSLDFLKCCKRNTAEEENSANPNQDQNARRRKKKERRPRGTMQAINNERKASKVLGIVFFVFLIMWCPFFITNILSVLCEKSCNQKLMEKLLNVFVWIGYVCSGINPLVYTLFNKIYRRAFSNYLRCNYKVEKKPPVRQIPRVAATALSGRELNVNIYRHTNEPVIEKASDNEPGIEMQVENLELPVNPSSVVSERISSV

[7] = target: 5-hydroxytryptamine receptor 2A (Homo sapiens, UniProt P28223); test: Binding affinity to human 5HT2A
Sequence of 5-hydroxytryptamine receptor 2A (P28223 whole entry): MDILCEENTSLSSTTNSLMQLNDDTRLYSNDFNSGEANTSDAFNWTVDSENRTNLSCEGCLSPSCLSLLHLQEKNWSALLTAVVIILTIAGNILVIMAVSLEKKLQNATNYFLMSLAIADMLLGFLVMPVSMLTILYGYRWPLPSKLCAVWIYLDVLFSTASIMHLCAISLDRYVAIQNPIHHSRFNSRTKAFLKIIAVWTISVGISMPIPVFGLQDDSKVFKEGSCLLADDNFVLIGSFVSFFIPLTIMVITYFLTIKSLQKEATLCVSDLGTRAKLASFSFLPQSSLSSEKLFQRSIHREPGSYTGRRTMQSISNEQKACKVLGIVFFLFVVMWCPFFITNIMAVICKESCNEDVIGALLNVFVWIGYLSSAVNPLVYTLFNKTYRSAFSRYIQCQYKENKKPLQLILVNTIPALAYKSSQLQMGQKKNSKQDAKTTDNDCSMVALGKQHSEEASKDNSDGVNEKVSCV

[8] = target: 5-hydroxytryptamine receptor 1D (Homo sapiens, UniProt P28221); test: Binding affinity to human 5HT1D
Sequence of 5-hydroxytryptamine receptor 1D (P28221 whole entry): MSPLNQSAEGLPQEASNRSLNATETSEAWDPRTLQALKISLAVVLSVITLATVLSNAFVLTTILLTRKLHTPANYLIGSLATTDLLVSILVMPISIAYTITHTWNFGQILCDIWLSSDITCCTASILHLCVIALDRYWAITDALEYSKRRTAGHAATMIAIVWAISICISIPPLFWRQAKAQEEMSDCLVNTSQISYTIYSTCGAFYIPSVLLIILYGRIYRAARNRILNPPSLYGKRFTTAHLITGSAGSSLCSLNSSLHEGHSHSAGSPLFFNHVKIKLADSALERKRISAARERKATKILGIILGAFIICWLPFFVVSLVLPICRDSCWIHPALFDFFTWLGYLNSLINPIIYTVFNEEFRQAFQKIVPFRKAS

[9] = target: 5-hydroxytryptamine receptor 1B (Homo sapiens, UniProt P28222); test: Binding affinity to human 5HT1B
Sequence of 5-hydroxytryptamine receptor 1B (P28222 whole entry): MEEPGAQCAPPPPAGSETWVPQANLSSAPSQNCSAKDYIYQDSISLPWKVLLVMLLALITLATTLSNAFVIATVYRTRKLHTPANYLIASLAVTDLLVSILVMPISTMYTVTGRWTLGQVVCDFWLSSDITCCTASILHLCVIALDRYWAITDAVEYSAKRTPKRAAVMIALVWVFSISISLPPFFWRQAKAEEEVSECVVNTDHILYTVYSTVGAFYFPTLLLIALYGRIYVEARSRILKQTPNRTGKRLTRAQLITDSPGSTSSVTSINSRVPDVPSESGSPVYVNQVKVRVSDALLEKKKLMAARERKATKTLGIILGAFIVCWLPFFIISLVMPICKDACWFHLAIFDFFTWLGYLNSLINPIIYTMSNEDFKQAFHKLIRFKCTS

[10] = target: T3, 5-hydroxytryptamine receptor 1A (Homo sapiens, UniProt P08908); test: Binding affinity to human 5HT1A
T3 sequence (P08908 whole entry): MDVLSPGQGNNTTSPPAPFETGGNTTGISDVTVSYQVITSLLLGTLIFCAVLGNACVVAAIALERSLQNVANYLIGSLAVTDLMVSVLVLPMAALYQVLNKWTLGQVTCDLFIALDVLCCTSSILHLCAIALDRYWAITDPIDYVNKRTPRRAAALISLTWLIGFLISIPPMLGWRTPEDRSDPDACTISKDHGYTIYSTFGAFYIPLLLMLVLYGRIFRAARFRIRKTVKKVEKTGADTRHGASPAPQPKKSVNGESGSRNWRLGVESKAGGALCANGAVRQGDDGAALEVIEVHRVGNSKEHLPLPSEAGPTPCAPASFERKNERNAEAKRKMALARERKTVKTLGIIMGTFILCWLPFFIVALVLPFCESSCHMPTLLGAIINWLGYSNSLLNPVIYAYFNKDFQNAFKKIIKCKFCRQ

[11] = target: T4, 5-hydroxytryptamine receptor 4 (Homo sapiens, UniProt Q13639); test: Intrinsic activity at human 5HT4R
T4 sequence (Q13639 whole entry): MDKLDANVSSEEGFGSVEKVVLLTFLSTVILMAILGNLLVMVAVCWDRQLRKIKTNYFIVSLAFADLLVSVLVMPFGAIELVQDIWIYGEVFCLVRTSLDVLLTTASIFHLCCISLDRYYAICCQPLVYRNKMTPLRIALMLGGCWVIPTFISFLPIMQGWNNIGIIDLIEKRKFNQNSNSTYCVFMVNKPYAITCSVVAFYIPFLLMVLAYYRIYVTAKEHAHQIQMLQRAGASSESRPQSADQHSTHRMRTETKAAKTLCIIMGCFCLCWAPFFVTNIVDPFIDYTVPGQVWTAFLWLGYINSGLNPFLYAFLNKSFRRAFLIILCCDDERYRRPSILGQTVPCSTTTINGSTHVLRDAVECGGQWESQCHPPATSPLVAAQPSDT

[12] = target: T4, 5-hydroxytryptamine receptor 4; test: Binding affinity to human 5HT4R
[13] = target: 5-hydroxytryptamine receptor 4 (Cavia porcellus) (UniProt O70528); test: Displacement of [3H]GR113808 from 5HT4R in guinea pig striatal membranes at 10^-8 M; type: cell membranes; conditions: Striatum, Membrane
Sequence of 5-hydroxytryptamine receptor 4 (Cavia porcellus) (O70528 whole entry): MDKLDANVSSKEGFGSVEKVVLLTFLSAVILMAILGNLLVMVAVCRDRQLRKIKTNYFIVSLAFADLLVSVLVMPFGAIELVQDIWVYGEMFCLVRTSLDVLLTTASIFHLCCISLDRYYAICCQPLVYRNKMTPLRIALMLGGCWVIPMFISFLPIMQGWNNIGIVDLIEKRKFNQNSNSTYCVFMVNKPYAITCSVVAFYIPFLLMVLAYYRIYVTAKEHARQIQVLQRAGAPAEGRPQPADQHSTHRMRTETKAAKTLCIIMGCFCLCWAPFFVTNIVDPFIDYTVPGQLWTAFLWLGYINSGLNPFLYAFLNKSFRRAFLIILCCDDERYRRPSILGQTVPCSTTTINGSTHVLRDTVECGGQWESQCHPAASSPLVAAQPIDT

[14] = target: 5-hydroxytryptamine receptor 4 (Cavia porcellus, UniProt O70528); test: Displacement of [3H]GR113808 from 5HT4R in guinea pig striatal membranes; type: cell membranes, Striatum, Membrane
Sequence of 5-hydroxytryptamine receptor 4 (Cavia porcellus, UniProt O70528) (O70528 whole entry): as above

[15] = target: 5-hydroxytryptamine receptor 4 (Cavia porcellus) (UniProt O70528); test: Displacement of [3H]GR113808 from 5HT4R in guinea pig striatal membranes at 10^-6 M; type: cell membranes; conditions: Striatum, Membrane

Sequence of 5-hydroxytryptamine receptor 6 (P50406 whole entry): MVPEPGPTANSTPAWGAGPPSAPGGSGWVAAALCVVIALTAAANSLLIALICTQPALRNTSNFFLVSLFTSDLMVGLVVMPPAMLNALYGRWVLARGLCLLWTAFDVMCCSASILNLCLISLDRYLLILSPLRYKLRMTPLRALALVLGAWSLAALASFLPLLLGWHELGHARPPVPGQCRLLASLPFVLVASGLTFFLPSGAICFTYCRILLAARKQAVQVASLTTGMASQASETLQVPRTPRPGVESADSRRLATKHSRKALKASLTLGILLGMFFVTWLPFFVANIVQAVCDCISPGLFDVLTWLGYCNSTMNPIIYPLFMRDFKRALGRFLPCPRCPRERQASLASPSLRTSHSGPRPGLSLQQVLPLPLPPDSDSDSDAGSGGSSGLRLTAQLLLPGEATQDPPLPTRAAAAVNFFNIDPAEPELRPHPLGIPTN
Sequence of 5-hydroxytryptamine receptor 7 (P34969 whole entry): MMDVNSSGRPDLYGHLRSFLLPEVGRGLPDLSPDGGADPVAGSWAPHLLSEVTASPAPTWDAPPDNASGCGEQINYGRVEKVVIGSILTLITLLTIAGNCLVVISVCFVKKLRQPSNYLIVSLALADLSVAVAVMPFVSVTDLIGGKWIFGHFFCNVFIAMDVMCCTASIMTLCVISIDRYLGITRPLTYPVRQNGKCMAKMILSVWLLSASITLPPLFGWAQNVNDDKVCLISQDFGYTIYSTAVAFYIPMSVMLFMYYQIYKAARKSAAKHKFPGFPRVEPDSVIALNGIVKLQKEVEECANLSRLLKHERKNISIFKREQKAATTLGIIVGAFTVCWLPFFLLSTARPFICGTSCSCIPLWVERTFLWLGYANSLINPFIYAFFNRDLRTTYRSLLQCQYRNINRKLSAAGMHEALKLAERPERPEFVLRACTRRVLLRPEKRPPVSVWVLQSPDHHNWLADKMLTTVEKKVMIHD

Row | Compound | inhibition [13] | Ki [14] | inhibition [15] | also measured
1 | FC(F)CN1CCC(COc2nc3ccccc3c3ccccc23)CC1 | 0% |  | 58% | 
2 | FC(F)(F)C(F)(F)CN1CCC(COc2nc3ccccc3c3ccccc23)CC1 | 0% |  | 1% | 
3 | Fc1cccc2c1nc(OCC1CCN(CC(F)F)CC1)c1ccccc12 | 0% |  | 93% | 
4 | Fc1cccc2c1nc(OCC1CCN(CC(F)(F)C(F)(F)F)CC1)c1ccccc12 | 0% |  | 4% | 
5 | FC(F)(F)CN1CCC(COc2nc3ccccc3c3ccccc23)CC1 | 0% |  | 1% | 
6 | Fc1cccc2c1nc(OCC1CCN(CC(F)(F)F)CC1)c1ccccc12 | 0% |  | 3% | 
7 | CCCN1CCC(COc2nc3c(F)cccc3c3ncccc23)CC1 | 94% |  |  | 

Further lines, with some results ahead:

Row | inhibition [13] | Ki [14] | inhibition [15] | Compound | also measured
8 | 80% | 4.2 nM | 100% | Fc1cccc2c1nc(OCC1CCN(CCCC(F)(F)F)CC1)c1cccnc12 | Ki [1]: > 10000 nM; Ki [2]: > 10000 nM; Ki [3]: > 10000 nM; Ki [4]: 2600 nM; Ki [5]: 190 nM; Ki [6]: 980 nM; Ki [7]: 8700 nM; Ki [8]: > 10000 nM; Ki [9]: > 10000 nM; Ki [10]: > 10000 nM; Kb [11]: 0.199 nM; Ki [12]: 0.2 nM
9 | 49% | 14.1 nM | 100% | Fc1cccc2c1nc(OCC1CCN(CCCC(F)(F)F)CC1)c1ccccc12 | 
10 | 80% | 9 nM | 100% | Fc1cccc2c1nc(OCC1CCN(CCC(F)(F)F)CC1)c1cccnc12 | Ki [1]: > 10000 nM; Ki [2]: > 10000 nM; Ki [3]: > 10000 nM; Ki [4]: 1200 nM; Ki [5]: 230 nM; Ki [6]: > 10000 nM; Ki [7]: > 10000 nM; Ki [8]: > 10000 nM; Ki [9]: > 10000 nM; Ki [10]: > 10000 nM; Kb [11]: 0.079 nM; Ki [12]: 0.11 nM
11 | 26% | 91.4 nM | 100% | Fc1cccc2c1nc(OCC1CCN(CC(F)F)CC1)c1cccnc12 | 
12 | 61% | 22 nM | 100% | Fc1cccc2c1nc(OCC1CCN(CCC(F)(F)F)CC1)c1ccccc12 | 
